Data on two molecules can be found in US20090117054A1, “[…] FOR THE TREATMENT OF PAIN” (University of Kentucky Research Foundation, priority 2005, published 2009).

The structures appear in SMILES notation. Read-outs that look alike come from different tables or passages of the source.

The conditions of data set [1]: cited from earlier work; for time to reach maximum plasma concentration: healthy volunteers.
Data set [2] is described as follows: Pharmacokinetics of oxycodone in rabbits after intravenous and sublingual spray administration.
[3] abbreviates: male, New Zealand albino, rabbit, plasma, iv, 100 ug.

As for `COc1ccc2c3c1O[C@H]1C(=O)CC[C@@]4(O)[C@@H](C2)N(C)CC[C@]314.Cl` [oxycodone hydrochloride], in data set [1] (buccal and intranasal administration), the bioavailability entry is given as “around 55%”.

Turning to `COc1ccc2c3c1O[C@H]1C(=O)CC[C@@]4(O)[C@@H](C2)N(C)CC[C@]314` [oxycodone, 4,5-epoxy-14-hydroxy-3-methoxy-1 7-methyl-5a-morphinan-6-one], the results for the “time to reach maximum plasma concentration” value in data set [1] (immediate release oral tablets), in data set [1] (intramuscular) and in data set [1] (intranasal) were 1.3 h, 1.0 h and 0.42 h, respectively. Further, the bioavailability is 40-60% in data set [1] (oral, nasal and rectal, adults, compared with parenteral administration); 45.4 ± 20.1% in data set [2] (male, New Zealand albino, rabbit, plasma, 100 μg, pH 4); 70.1 ± 17.9% in data set [2] (male, New Zealand albino, rabbit, plasma, 100 μg, pH 9). In addition, the Tmax in data set [2] (male, New Zealand albino, rabbit, plasma, 100 μg) is 20 min; in data set [2] (setting [3]), 0 min. The AUC(0-inf) in data set [2] (setting [3]) is 213 ng·h/mL. This molecule came in with a maximum concentration (Cmax) in data set [2] (setting [3]) of 185 ng/mL. In data set [2] (setting [3]), this molecule had a half-life of 67.8 min. In addition, the “terminal half-life after intravenous administration compared with sublingual administration” value in data set [2] (rabbits) is “close to the terminal half-life after sublingual administration”.
